Measured values reported in ChEMBL document CHEMBL1148043, “Alectosarmentin, a new antimicrobial dibenzofuranoid lactol from the lichen, Alectoria sarmentosa” (1994).
The source made the active and inactive calls. No cut-off for these calls is given here.

Tests used:
[1] = tested on: Mycolicibacterium smegmatis; assay: Antimicrobial activity against Mycobacterium smegmatis ATCC 607 by agar-dilution streak method; type: functional
[2] = tested on: Klebsiella pneumoniae; assay: Antimicrobial activity against Klebsiella pneumoniae ATCC 10031 at 100 ug/ml by agar-dilution streak method; type: functional, organism-based
[3] = tested on: Staphylococcus aureus; assay: Antimicrobial activity against Staphylococcus aureus ATCC 13709 by agar-dilution streak method; type: functional
[4] = tested on: Candida albicans; assay: Antimicrobial activity against Candida albicans ATCC 10231 at 100 ug/ml by agar-dilution streak method; type: functional, organism-based
[5] = tested on: Escherichia coli; assay: Antimicrobial activity against Escherichia coli ATCC 9637 at 100 ug/ml by agar-dilution streak method; type: functional, organism-based
[6] = tested on: Pseudomonas aeruginosa; assay: Antimicrobial activity against Pseudomonas aeruginosa ATCC 27853 at 100 ug/ml by agar-dilution streak method; type: functional, organism-based
[7] = tested on: Salmonella enterica subsp. enterica serovar Gallinarum; assay: Antimicrobial activity against Salmonella gallinarum ATCC 9184 at 100 ug/ml by agar-dilution streak method; type: functional, organism-based
[8] = tested on: Candida albicans; assay: Antimicrobial activity against Candida albicans ATCC 10231 by agar-dilution streak method; type: functional
[9] = tested on: Escherichia coli; assay: Antimicrobial activity against Escherichia coli ATCC 9637 by agar-dilution streak method; type: functional
[10] = tested on: Klebsiella pneumoniae; assay: Antimicrobial activity against Klebsiella pneumoniae ATCC 10031 by agar-dilution streak method; type: functional
[11] = tested on: Salmonella enterica subsp. enterica serovar Gallinarum; assay: Antimicrobial activity against Salmonella gallinarum ATCC 9184 by agar-dilution streak method; type: functional

Row | Compound | Activity [1] | Activity [2] | Activity [3] | Activity [4] | Activity [5] | Activity [6] | Activity [7] | Activity [8] | Activity [9] | Activity [10] | Activity [11]
1 | Cc1cc(O)cc2oc3cc(O)c4c(c3c12)C(O)OC4=O (stereo not given) [ALECTOSARMENTIN] | 25 µg/mL | inactive | 25 µg/mL | inactive | inactive | inactive | inactive |  |  |  | 
2 | CCCCCC(=O)Cc1cc(O)cc2c1C(=O)Oc1cc(O)c(C(=O)O)c(CCCCC)c1O2 [PHYSODIC ACID] | 100 µg/mL | inactive | 25 µg/mL | inactive | inactive | inactive | inactive |  |  |  | 
3 | CC(=O)C1=C(O)C=C2Oc3c(C(C)=O)c(O)c(C)c(O)c3[C@]2(C)C1=O [(-)-USNIC ACID] | 6.25 µg/mL | inactive | 25 µg/mL |  | inactive | inactive | inactive | 50 µg/mL |  |  | 
4 | CN[C@@H]1[C@H](O[C@H]2[C@H](O[C@H]3[C@H](O)[C@@H](O)[C@H](N=C(N)N)[C@@H](O)[C@@H]3N=C(N)N)O[C@@H](C)[C@]2(O)C=O)O[C@@H](CO)[C@H](O)[C@H]1O.CN[C@@H]1[C@H](O[C@H]2[C@H](O[C@H]3[C@H](O)[C@@H](O)[C@H](N=C(N)N)[C@@H](O)[C@@H]3N=C(N)N)O[C@@H](C)[C@]2(O)C=O)O[C@@H](CO)[C@H](O)[C@H]1O.O=S(=O)(O)O.O=S(=O)(O)O.O=S(=O)(O)O [STREPTOMYCIN SULFATE] | 1.25 µg/mL |  | 5 µg/mL | inactive |  | inactive |  |  | 5 µg/mL | 2.5 µg/mL | 50 µg/mL
5 | CCCCCc1cc2cc(O)cc(Oc3c(O)cc(O)c4c3CC(CCCCC)(OCC)OC4=O)c2c(=O)o1 (stereo not given) | 50 µg/mL | inactive | 50 µg/mL |  | inactive | inactive | inactive | 100 µg/mL |  |  | 
